This experiment addresses T1, Recombinant human IL-1β (Homo sapiens, UniProt P01584).
T1 construct: purchased BioLegend 579404
Put plainly: IL-6 assay in MRC5 cells: inhibition of IL-1β induced IL-6 secretion (AlphaLISA). Format: cell-based. The conditions noted are these: inhibition of IL-1β induced IL-6 secretion in MRC5 cells; read-out: MRC5 IC50. The gist of the method:
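IL-1β at 2×EC80 in seeding medium (EMEM, 0.025% BSA) preincubated 1 h at ambient temperature with compound, then 3000 MRC5 cells/well added and incubated overnight at 37 °C, 5% CO2. IL-6 in conditioned medium quantified by AlphaLISA; IC50 from 4-parameter logistic fit.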

The source of these data is US20230406885A1, “CYCLIC PEPTIDES FOR TRAPPING INTERLEUKIN-1 BETA” (MERCK SHARP & DOHME LLC, priority 2022, published 2023).

The structures appear in SMILES notation. pIC50: −log10 of the molar value. *1 amine or outer side, *2 acyl side, *3 side chain or, on linkers, in order; H or OH if unused. Where a SMILES comes first, the peptide text is derived from it. [ ]: non-standard residue; d: D form. Ala(piperidin-4-yl) = O=C([C@H](CC1CCN([*:3])CC1)N[*:1])[*:2]; Trp(βS-Me,4-F) = C[C@@H](c1c[nH]c2cccc(F)c12)[C@H](N)C(=O)O; Bip(4'-COOH) = N[C@@H](Cc1ccc(-c2ccc(C(=O)O)cc2)cc1)C(=O)O; X1 = CC(=O)N1CCN(c2ccc(C[C@H](N[*:1])C(=O)[*:2])cn2)CC1; 1Nal(3S-Me) = C[C@@H](c1cccc2ccccc12)[C@H](N)C(=O)O; Phe(4-COOH) = N[C@@H](Cc1ccc(C(=O)O)cc1)C(=O)O; h3Pal(5-CN) = N#Cc1cncc(CC[C@H](N)C(=O)O)c1; Pro(4R-NH2) = N[C@H]1CN[C@H](C(=O)O)C1; AEF = NCCOc1ccc(C[C@H](N)C(=O)O)cc1; hTyr = N[C@@H](CCc1ccc(O)cc1)C(=O)O; hCha = N[C@@H](CCC1CCCCC1)C(=O)O; hPhe = N[C@@H](CCc1ccccc1)C(=O)O; Aad = N[C@@H](CCCC(=O)O)C(=O)O; dOrn = NCCC[C@@H](N)C(=O)O; dDab = NCC[C@@H](N)C(=O)O; dNMeA = CN[C@H](C)C(=O)O; Dab = NCC[C@H](N)C(=O)O; Dap = NC[C@H](N)C(=O)O

T1 sequence (P01584 117-269): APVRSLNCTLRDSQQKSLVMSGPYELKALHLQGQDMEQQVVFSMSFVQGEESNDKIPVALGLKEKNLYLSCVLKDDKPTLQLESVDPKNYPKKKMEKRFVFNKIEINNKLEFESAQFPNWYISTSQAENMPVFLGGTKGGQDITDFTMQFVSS

In the case of `CC(=O)NCCOc1ccc(C[C@@H]2NC(=O)[C@H](CC3CCNCC3)NC(=O)[C@@H](C)NC(=O)[C@H](CC(C)C)NC(=O)[C@H](Cc3c[nH]c4ccccc34)NC(=O)[C@H](Cc3ccc(-c4ccc(C(=O)O)cc4)cc3)NC(=O)CNC(=O)[C@@H](C)N(C)C(=O)[C@H](CC(=O)O)NC(=O)[C@H]([C@@H](C)c3c[nH]c4cccc(F)c34)NC(=O)[C@@H]3C[C@@H](N)CN3C(=O)CNC(=O)[C@H](Cc3ccc(C(=O)O)cc3)NC(=O)[C@H](Cc3c[nH]c4ccccc34)NC2=O)cc1` [Example 165] (cyclo([AEF](Ac)W[Phe(4-COOH)]G[Pro(4R-NH2)][Trp(βS-Me,4-F)]D[dNMeA]G[Bip(4'-COOH)]WL[dA][Ala(piperidin-4-yl)])), the pIC50 (usually the negative decadic logarithm of the IC50, by convention in mol/L) was 9.11.

Consider `CC(=O)NCCOc1ccc(C[C@@H]2NC(=O)[C@H](CCc3ccccc3)NC(=O)[C@@H](C)NC(=O)[C@H](CC(C)C)NC(=O)[C@H](Cc3c[nH]c4ccccc34)NC(=O)[C@H](Cc3ccc(-c4ccc(C(=O)O)cc4)cc3)NC(=O)CNC(=O)[C@@H](C)N(C)C(=O)[C@H](CC(=O)O)NC(=O)[C@H]([C@@H](C)c3c[nH]c4cccc(F)c34)NC(=O)[C@@H]3C[C@@H](N)CN3C(=O)CNC(=O)[C@H](Cc3ccc(C(=O)O)cc3)NC(=O)[C@H](Cc3c[nH]c4ccccc34)NC2=O)cc1` [Example 166] (cyclo([AEF](Ac)W[Phe(4-COOH)]G[Pro(4R-NH2)][Trp(βS-Me,4-F)]D[dNMeA]G[Bip(4'-COOH)]WL[dA][hPhe])), for which the pIC50 was 9.83.

On to `CC(=O)NCCOc1ccc(C[C@@H]2NC(=O)[C@H](CCc3ccc(O)cc3)NC(=O)[C@@H](C)NC(=O)[C@H](CC(C)C)NC(=O)[C@H](Cc3c[nH]c4ccccc34)NC(=O)[C@H](Cc3ccc(-c4ccc(C(=O)O)cc4)cc3)NC(=O)CNC(=O)[C@@H](C)N(C)C(=O)[C@H](CC(=O)O)NC(=O)[C@H]([C@@H](C)c3c[nH]c4cccc(F)c34)NC(=O)[C@@H]3C[C@@H](N)CN3C(=O)CNC(=O)[C@H](Cc3ccc(C(=O)O)cc3)NC(=O)[C@H](Cc3c[nH]c4ccccc34)NC2=O)cc1` [Example 167] (cyclo([AEF](Ac)W[Phe(4-COOH)]G[Pro(4R-NH2)][Trp(βS-Me,4-F)]D[dNMeA]G[Bip(4'-COOH)]WL[dA][hTyr])), for which the pIC50 was 9.87.

Consider `CC(=O)NCCOc1ccc(C[C@@H]2NC(=O)[C@H](CCc3ccc(O)cc3)NC(=O)[C@@H](CCN)NC(=O)[C@H](CC(C)C)NC(=O)[C@H](Cc3c[nH]c4ccccc34)NC(=O)[C@H](Cc3ccc(-c4ccc(C(=O)O)cc4)cc3)NC(=O)CNC(=O)[C@@H](C)N(C)C(=O)[C@H](CC(=O)O)NC(=O)[C@H]([C@@H](C)c3c[nH]c4cccc(F)c34)NC(=O)[C@@H]3C[C@@H](N)CN3C(=O)CNC(=O)[C@H](Cc3ccc(C(=O)O)cc3)NC(=O)[C@H](Cc3c[nH]c4ccccc34)NC2=O)cc1` [Example 168] (cyclo([AEF](Ac)W[Phe(4-COOH)]G[Pro(4R-NH2)][Trp(βS-Me,4-F)]D[dNMeA]G[Bip(4'-COOH)]WL[dDab][hTyr])), for which the negative logarithm of the IC50 (pIC50) was 10.07.

For `CC(=O)NCCOc1ccc(C[C@@H]2NC(=O)[C@H](CCc3ccc(O)cc3)NC(=O)[C@@H](CCCCN)NC(=O)[C@H](CC(C)C)NC(=O)[C@H](Cc3c[nH]c4ccccc34)NC(=O)[C@H](Cc3ccc(-c4ccc(C(=O)O)cc4)cc3)NC(=O)CNC(=O)[C@@H](C)N(C)C(=O)[C@H](CC(=O)O)NC(=O)[C@H]([C@@H](C)c3c[nH]c4cccc(F)c34)NC(=O)[C@@H]3C[C@@H](N)CN3C(=O)CNC(=O)[C@H](Cc3ccc(C(=O)O)cc3)NC(=O)[C@H](Cc3c[nH]c4ccccc34)NC2=O)cc1` [Example 169] (cyclo([AEF](Ac)W[Phe(4-COOH)]G[Pro(4R-NH2)][Trp(βS-Me,4-F)]D[dNMeA]G[Bip(4'-COOH)]WL[dK][hTyr])), the negative-log IC50 (pIC50) was 9.95.

For `CC(=O)NCCOc1ccc(C[C@@H]2NC(=O)[C@H](CCc3ccc(O)cc3)NC(=O)[C@@H](CCCN)NC(=O)[C@H](CC(C)C)NC(=O)[C@H](Cc3c[nH]c4ccccc34)NC(=O)[C@H](Cc3ccc(-c4ccc(C(=O)O)cc4)cc3)NC(=O)CNC(=O)[C@@H](C)N(C)C(=O)[C@H](CC(=O)O)NC(=O)[C@H]([C@@H](C)c3c[nH]c4cccc(F)c34)NC(=O)[C@@H]3C[C@@H](N)CN3C(=O)CNC(=O)[C@H](Cc3ccc(C(=O)O)cc3)NC(=O)[C@H](Cc3c[nH]c4ccccc34)NC2=O)cc1` [Example 170] (cyclo([AEF](Ac)W[Phe(4-COOH)]G[Pro(4R-NH2)][Trp(βS-Me,4-F)]D[dNMeA]G[Bip(4'-COOH)]WL[dOrn][hTyr])), the pIC50 is 10.01.

As for `CC(=O)NCCOc1ccc(C[C@@H]2NC(=O)[C@H](CCc3ccc(O)cc3)NC(=O)[C@@H](CO)NC(=O)[C@H](CC(C)C)NC(=O)[C@H](Cc3c[nH]c4ccccc34)NC(=O)[C@H](Cc3ccc(-c4ccc(C(=O)O)cc4)cc3)NC(=O)CNC(=O)[C@@H](C)N(C)C(=O)[C@H](CC(=O)O)NC(=O)[C@H]([C@@H](C)c3c[nH]c4cccc(F)c34)NC(=O)[C@@H]3C[C@@H](N)CN3C(=O)CNC(=O)[C@H](Cc3ccc(C(=O)O)cc3)NC(=O)[C@H](Cc3c[nH]c4ccccc34)NC2=O)cc1` [Example 171] (cyclo([AEF](Ac)W[Phe(4-COOH)]G[Pro(4R-NH2)][Trp(βS-Me,4-F)]D[dNMeA]G[Bip(4'-COOH)]WL[dS][hTyr])), the pIC50 is 9.84.

Regarding `CC(=O)NCCOc1ccc(C[C@@H]2NC(=O)[C@H](CCc3ccc(O)cc3)NC(=O)[C@@H](C)NC(=O)[C@H](CO)NC(=O)[C@H](Cc3c[nH]c4ccccc34)NC(=O)[C@H](Cc3ccc(-c4ccc(C(=O)O)cc4)cc3)NC(=O)CNC(=O)[C@@H](C)N(C)C(=O)[C@H](CC(=O)O)NC(=O)[C@H]([C@@H](C)c3c[nH]c4cccc(F)c34)NC(=O)[C@@H]3C[C@@H](N)CN3C(=O)CNC(=O)[C@H](Cc3ccc(C(=O)O)cc3)NC(=O)[C@H](Cc3c[nH]c4ccccc34)NC2=O)cc1` [Example 172] (cyclo([AEF](Ac)W[Phe(4-COOH)]G[Pro(4R-NH2)][Trp(βS-Me,4-F)]D[dNMeA]G[Bip(4'-COOH)]WS[dA][hTyr])), the pIC50 was 9.61.

`CC(=O)NCCOc1ccc(C[C@@H]2NC(=O)[C@H](Cc3ccc(OCCNC(C)=O)cc3)NC(=O)[C@@H](C)NC(=O)[C@H](CO)NC(=O)[C@H](Cc3c[nH]c4ccccc34)NC(=O)[C@H](Cc3ccc(-c4ccc(C(=O)O)cc4)cc3)NC(=O)CNC(=O)[C@@H](C)N(C)C(=O)[C@H](CC(=O)O)NC(=O)[C@H]([C@@H](C)c3c[nH]c4cccc(F)c34)NC(=O)[C@@H]3C[C@@H](N)CN3C(=O)CNC(=O)[C@H](Cc3ccc(C(=O)O)cc3)NC(=O)[C@H](Cc3c[nH]c4ccccc34)NC2=O)cc1` [Example 173] (cyclo([AEF](Ac)W[Phe(4-COOH)]G[Pro(4R-NH2)][Trp(βS-Me,4-F)]D[dNMeA]G[Bip(4'-COOH)]WS[dA][AEF](Ac))): the pIC50 is 9.02.

Turning to `CC(=O)N1CCN(c2ccc(C[C@@H]3NC(=O)[C@H](CCC4CCCCC4)NC(=O)[C@@H](C)NC(=O)[C@H](CC(C)C)NC(=O)[C@H](CCN)NC(=O)[C@H](Cc4ccc(-c5ccc(C(=O)O)cc5)cc4)NC(=O)CNC(=O)[C@@H](C)N(C)C(=O)[C@H](CC(=O)O)NC(=O)[C@H]([C@@H](C)c4cccc5ccccc45)NC(=O)[C@@H]4C[C@@H](N)CN4C(=O)CNC(=O)[C@H](Cc4ccc(C(=O)O)cc4)NC(=O)[C@H](Cc4c[nH]c5ccccc45)NC3=O)cn2)CC1` [Example 174] (cyclo([X1]W[Phe(4-COOH)]G[Pro(4R-NH2)][1Nal(3S-Me)]D[dNMeA]G[Bip(4'-COOH)][Dab]L[dA][hCha])), the pIC50 was 10.82.

For `CC(=O)N1CCN(c2ccc(C[C@@H]3NC(=O)[C@H](CCC4CCCCC4)NC(=O)[C@@H](C)NC(=O)[C@H](CC(C)C)NC(=O)[C@H](CN)NC(=O)[C@H](Cc4ccc(-c5ccc(C(=O)O)cc5)cc4)NC(=O)CNC(=O)[C@@H](C)N(C)C(=O)[C@H](CC(=O)O)NC(=O)[C@H]([C@@H](C)c4cccc5ccccc45)NC(=O)[C@@H]4C[C@@H](N)CN4C(=O)CNC(=O)[C@H](Cc4ccc(C(=O)O)cc4)NC(=O)[C@H](Cc4c[nH]c5ccccc45)NC3=O)cn2)CC1` [Example 175] (cyclo([X1]W[Phe(4-COOH)]G[Pro(4R-NH2)][1Nal(3S-Me)]D[dNMeA]G[Bip(4'-COOH)][Dap]L[dA][hCha])), the pIC50 was 10.80.

As for `CC(=O)N1CCN(c2ccc(C[C@@H]3NC(=O)[C@H](CCc4cncc(C#N)c4)NC(=O)[C@@H](C)NC(=O)[C@H](CC(C)C)NC(=O)[C@H](CCCC(N)=O)NC(=O)[C@H](Cc4ccc(-c5ccc(C(=O)O)cc5)cc4)NC(=O)CNC(=O)[C@@H](C)N(C)C(=O)[C@H](CC(=O)O)NC(=O)[C@H]([C@@H](C)c4cccc5ccccc45)NC(=O)[C@@H]4C[C@@H](N)CN4C(=O)CNC(=O)[C@H](Cc4ccc(C(=O)O)cc4)NC(=O)[C@H](Cc4c[nH]c5ccccc45)NC3=O)cn2)CC1` [Example 176] (cyclo([X1]W[Phe(4-COOH)]G[Pro(4R-NH2)][1Nal(3S-Me)]D[dNMeA]G[Bip(4'-COOH)][Aad](NH2)L[dA][h3Pal(5-CN)])), the pIC50 is 10.77.

`CC(=O)N1CCN(c2ccc(C[C@@H]3NC(=O)[C@H](CCC4CCCCC4)NC(=O)[C@@H](C)NC(=O)[C@H](CC(C)C)NC(=O)[C@H](CCCCN)NC(=O)[C@H](Cc4ccc(-c5ccc(C(=O)O)cc5)cc4)NC(=O)CNC(=O)[C@@H](C)N(C)C(=O)[C@H](CC(=O)O)NC(=O)[C@H]([C@@H](C)c4cccc5ccccc45)NC(=O)[C@@H]4C[C@@H](N)CN4C(=O)CNC(=O)[C@H](Cc4ccc(C(=O)O)cc4)NC(=O)[C@H](Cc4c[nH]c5ccccc45)NC3=O)cn2)CC1` [Example 177] (cyclo([X1]W[Phe(4-COOH)]G[Pro(4R-NH2)][1Nal(3S-Me)]D[dNMeA]G[Bip(4'-COOH)]KL[dA][hCha])): the pIC50 was 10.89.
